Like-named read-outs stand apart in the source and are kept apart here.
What was measured:
[1] = target: T1, rTRPM8 (Rattus norvegicus, UniProt Q8R455); parameters: method as in PMID 32843690; conditions: reference antagonist value; ref [31]; read-out: rTRPM8 IC50, Ca2+ microfluorography; cited from earlier work
T1 construct: expressed in transfected cells

[2] = target: T1, rTRPM8; test: Whole-cell patch-clamp, HEK293-rTRPM8 cells; type: cell-based; conditions: HEK293-rTRPM8, 100 μM menthol, holding voltage −60 mV
Experimental: To confirm the antagonistic activity, electrophysiology (patch-clamp) studies were performed on HEK293 cells expressing the rTRPM8 channel. […] Then, using a holding voltage of −60 mV, different concentrations of RGM8-51 were used to establish the concentration/response curve for rTRPM8 current blockade.
Whole-cell patch-clamp recordings from HEK293-rTRPM8 cells were carried out 2 days after seeding on 12 mm Ø glass coverslips treated with poly-L-lysine solution (Sigma Aldrich, Spain); the intracellular pipette solution contained (in mM) 150 NaCl, 5 EGTA, 3 MgCl2 and 10 HEPES, adjusted to pH 7.2 with NaOH, and the extracellular solution contained (in mM) 150 NaCl, 6 CsCl, 1.5 CaCl2, 1 MgCl2, 10 D-glucose and 10 HEPES, adjusted to pH 7.4 with NaOH. The TRPM8 activity was measured by the application of two pulses of 100 μM menthol in a time interval of 2 min and a 30 s perfusion of the different compound concentrations before the second menthol pulse.
Data were sampled at 10 kHz (EPC10 amplifier with PatchMaster 2.53 software, HEKA Electronics, Lambrecht, Germany) and low-pass filtered at 3 kHz for analysis (PatchMaster 2.53 and GraphPad Prism 6.0, Graphpad Software, San Diego, CA, USA). The series resistance was <10 MΩ and to minimize voltage errors was compensated by 60–80%. […] Cell capacitance was measured and used to estimate the current density (J, pA/pF).
Data analysis: For the whole-cell patch-clamp experiments, results are expressed as the percentage of remaining activation of the TRPM8 channel. This is calculated by normalizing the ratio (p2/p1) of testing conditions to the ratio (p2/p1) of the control condition. […] All data are expressed as the mean ± standard error of the mean (SEM) (n = 5–8). In the current-clamp experiments, the change in membrane potential is expressed as the difference between the resting membrane potential and the membrane potential after the addition of a stimuli. Data were analyzed as previously described (GraphPad 6.0, one-way ANOVA followed by Bonferroni multiple comparisons test, and ROUT method, Q = 10%).

[3] = target: T1, rTRPM8; test: Ca2+ microfluorography assay, HEK293 cells expressing rTRPM8, menthol activation; type: cell-based; conditions: HEK293-rTRPM8, 100 μM menthol
Experimental: This represents a similar activity as β–lactam 2 and a somewhat higher potency than the model TRPM8 antagonists AMTB.
To measure the effect of the compounds against TRPM8 activity we used microfluorometry-based calcium flux assays with Fluo-4 NW Ca^2+ dye and fluorescence as described in [30]. Briefly, human embryonic kidney cell line (HEK293) cells stably transfected with rTRPM8 or hTRPM8 were seeded in 96-well plates at a cell density of 30,000 cells. After 2 days the medium was replaced with 100 μL of the dye, Fluo-4 NW, loading solution supplemented with probenecid 2.5 mM and incubated 1 h at 37 °C. The TRPM8 activity was measured using POLASTAR plate reader (BMG Labtech) setting the excitation wavelength at 485 nm and the emission wavelength at 520 nm. The baseline fluorescence was recorded for 3 cycles before the addition of vehicle compound at different concentrations and the antagonist, 10 μM AMTB. Fluorescence intensity was recorded during 7 more cycles and 100 μM menthol was added. Fluorescence intensity was recorded during 10 more cycles.
Data analysis: The Z-factor was calculated in each assay using the following equation: […]. In all the experiments, the Z-factor was ≥0.5. The effect of the compounds against TRPM8 activity was determined by normalizing their effect on the maximum fluorescence observed after application of 100 μM menthol. Decrease in menthol signal was expressed as percentage of inhibition (%). All data are expressed as the mean ± standard deviation (SD). Data are expressed as the concentration exerting a half-maximal inhibition of agonist-induced [Ca^2+]i elevation (IC50), which was calculated again using GraphPad Prism® software. All determinations were performed in triplicate (n = 3) in 3 independent experiments (N = 3).

[4] = tested on: OXA-induced cold hypersensitivity in male mice; parameters: method as in PMID 32843690; conditions: ref [31]; cited from earlier work
[5] = tested on: CACO-2 cell monolayers; test: Caco-2 permeability; type: in vitro ADME; conditions: CACO-2 cell monolayer
Experimental: These studies were subcontracted to Eurofins-CEREP or Eurofins-PANLABS. Briefly, agonists and antagonist assays were performed in cell cultures overexpressing the corresponding channel (CHO: TRPV1 and TRPA1; HEK293: TRPV3 and ASIC3). In vitro pharmacology, cellular channel functional assays: the compound was prepared in assay buffer to the final concentration, 10 μM. The compound wells, reference agonist and background vehicle controls were prepared in DMSO at 0.3%. The reference agonist for each Ion Channel assayed was prepared in a similar manner to serve as the assay control. The reference agonist for each Ion Channel was included at Emax (the concentration where the reference agonist elicited a maximal response). The agonist assay was conducted on fluorimeter instruments where the test compound, vehicle controls, and reference agonist were added to the assay plate after a fluorescence baseline was established. The agonist assay was used to assess each compound’s ability to activate each Ion Channel assayed. For the antagonist assay, the compound was pre-incubated for five minutes at room temperature, and then challenged with the EC80 concentration of the reference agonist after establishment of a fluorescence baseline. Vehicle controls and EC80 concentration of reference agonist were added to appropriate wells. The antagonist assay was used to assess each compound’s ability to inhibit activation by the corresponding Ion Channel agonist. ASIC3 ionflux antagonist assay: all recordings were obtained from a holding potential of -60 mV. The compound addition sequence was as follows: one addition of pH5.5 buffer was added to establish the baseline response, the test concentration of compound was applied for 30 s, followed by the addition of pH5.5 of compound for 2 s. Binding assays were performed in CHO cell cultures overexpressing human CGRPR, CB2 and M2 receptors. RGM8-51 (10 μM) was tested, and reference compounds used as control agonists and antagonists are detailed in Table 2, footnote. Binding assay results are expressed as a percent of control specific binding. […] Aqueous solubility (μM) was determined by comparing the peak area of the principal peak in a calibration standard (200 μM) containing organic solvent (methanol/water, 60/40, v/v) with the peak area of the corresponding peak in a buffer sample. Partition coefficient: the total amount of compound was determined as the peak area of the principal peak in a calibration standard (100 μM) containing organic solvent (methanol/water, 60/40, v/v). The amount of compound in buffer was determined as the combined, volume-corrected, and weighted areas of the corresponding peaks in the aqueous phases of three organic-aqueous samples of different composition. An automated weighting system was used to ensure the preferred use of raw data from those samples with well quantifiable peak signals. The amount of compound in organic phase was calculated by subtraction. Subsequently, Log D was calculated as the Log10 of the amount of compound in the organic phase divided by the amount of compound in the aqueous phase. […] Permeability was measured in CACO-2 monolayers. Percentage of compounds in the receptors wells was measured using HPLC. […] In vitro metabolism was measured in human liver microsomes. […] The apparent intrinsic clearance (CLint, in μL/min/mg) was calculated from the half-life time.

[6] = tested on: serum proteins; test: Protein binding; type: in vitro ADME, human

T1 sequence (Q8R455 whole entry): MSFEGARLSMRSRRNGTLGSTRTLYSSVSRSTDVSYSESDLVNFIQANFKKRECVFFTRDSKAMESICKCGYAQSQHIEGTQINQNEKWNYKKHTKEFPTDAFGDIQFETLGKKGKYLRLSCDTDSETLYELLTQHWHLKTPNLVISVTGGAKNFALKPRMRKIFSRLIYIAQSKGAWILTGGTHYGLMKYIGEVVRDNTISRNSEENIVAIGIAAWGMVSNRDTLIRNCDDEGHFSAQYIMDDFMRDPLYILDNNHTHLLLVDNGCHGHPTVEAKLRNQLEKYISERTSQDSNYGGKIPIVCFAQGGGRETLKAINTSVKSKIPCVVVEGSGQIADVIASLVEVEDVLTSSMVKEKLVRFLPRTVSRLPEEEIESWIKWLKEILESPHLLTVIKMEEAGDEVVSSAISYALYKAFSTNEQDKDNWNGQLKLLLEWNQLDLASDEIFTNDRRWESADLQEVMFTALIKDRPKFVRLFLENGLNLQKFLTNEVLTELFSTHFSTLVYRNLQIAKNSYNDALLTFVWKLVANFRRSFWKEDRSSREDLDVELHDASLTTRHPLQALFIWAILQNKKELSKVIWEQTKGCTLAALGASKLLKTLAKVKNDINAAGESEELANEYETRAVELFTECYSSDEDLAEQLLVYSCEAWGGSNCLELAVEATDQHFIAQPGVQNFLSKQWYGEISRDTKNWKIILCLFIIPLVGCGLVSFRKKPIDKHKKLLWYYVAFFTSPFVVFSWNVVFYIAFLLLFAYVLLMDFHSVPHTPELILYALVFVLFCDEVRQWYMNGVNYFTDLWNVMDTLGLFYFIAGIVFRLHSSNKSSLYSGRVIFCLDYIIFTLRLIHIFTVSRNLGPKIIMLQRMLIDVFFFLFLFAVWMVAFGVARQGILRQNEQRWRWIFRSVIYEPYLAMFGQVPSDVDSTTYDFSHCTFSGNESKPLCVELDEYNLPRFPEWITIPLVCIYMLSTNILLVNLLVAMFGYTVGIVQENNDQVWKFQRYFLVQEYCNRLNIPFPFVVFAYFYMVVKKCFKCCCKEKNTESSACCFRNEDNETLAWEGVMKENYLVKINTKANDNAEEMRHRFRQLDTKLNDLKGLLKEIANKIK

Question: Which IC50 [1] does the source give for Cc1cccc(COc2ccccc2C(=O)N(CCCN)Cc2cccs2)c1 [AMTB] here?
Answer: 7.3 ± 1.5 µM

Question: For C[C@@H]1C(=O)N(C[C@H](Cc2ccccc2)NC(=O)OCc2ccccc2)[C@]1(Cc1ccccc1)C(=O)OCc1ccccc1 [Compound 2, reference compound], which IC50 [2] is on record?
Answer: 0.9 ± 1 µM

Question: And the IC50 [3]?
Answer: 3.1 ± 1.1 µM

Question: What about the “relief of oxaliplatin-induced cold hypersensitivity” value [4] of the same compound?
Answer: significant activity

Question: Which “Permeability B-A (%)” value [5] does the source give for CC(C)NCC(O)COc1cccc2ccccc12 (stereo not shown) [Propanolol, reference compound] here?
Answer: 74%

Question: And the “Permeability A-B (%)” value ([5]; percentage of compound in the acceptor cell)?
Answer: 70%

Question: For CC(=O)CC(c1ccccc1)c1c(O)c2ccccc2oc1=O (stereo not shown) [Warfarin, reference compound], which “Binding to proteins (%)” value [6] is on record?
Answer: 99%
